≈ marks a conversion by molar mass, not a printed value. Like-named read-outs stand apart in the source and are kept apart here.
Assays:
[1] = Solubility comparison: saturated solution in water, absorbance at 210 nm; assay type: physicochemical; details: room temperature
Experimental: Solubility studies of different aprepitant powders were conducted. Sufficient aprepitant having either crystalline Form I or II, or in the form of an amorphous povidone coprecipitate, was added to a 25 ml test tube containing 10 ml of water at room temperature to get a saturated solution. The solutions were filtered and filtrate was used to obtain the absorbance at 210 nm. Absorbance was compared to standards prepared by dissolving aprepitant in methanol, then diluting aliquots with water.

[2] = cited from earlier work

## C[C@@H](O[C@H]1OCCN(Cc2n[nH]c(=O)[nH]2)[C@H]1c1ccc(F)cc1)c1cc(C(F)(F)F)cc(C(F)(F)F)c1 [crystalline Form II, 5-[[(2R,3S)-2-[(1R)-1-[3,5-bis(trifluoromethyl)phenyl]ethoxy]-3-(4-fluorophenyl)-4-morpholinyl]methyl]-1,2-dihydro-3H-1,2,4-triazol-3-one]
[1]
  Solubility in water: 140 µg/mL (≈ 262 µM)

## C[C@@H](O[C@H]1OCCN(Cc2n[nH]c(=O)[nH]2)[C@H]1c1ccc(F)cc1)c1cc(C(F)(F)F)cc(C(F)(F)F)c1 [crystalline Form I, 5-[[(2R,3S)-2-[(1R)-1-[3,5-bis(trifluoromethyl)phenyl]ethoxy]-3-(4-fluorophenyl)-4-morpholinyl]methyl]-1,2-dihydro-3H-1,2,4-triazol-3-one]
[1]
  Solubility in water: 20 µg/mL (≈ 37.4 µM)

## C[C@@H](O[C@H]1OCCN(Cc2n[nH]c(=O)[nH]2)[C@H]1c1ccc(F)cc1)c1cc(C(F)(F)F)cc(C(F)(F)F)c1 [Aprepitant, 5-[[(2R,3S)-2-[(1R)-1-[3,5-bis(trifluoromethyl)phenyl]ethoxy]-3-(4-fluorophenyl)-4-morpholinyl]methyl]-1,2-dihydro-3H-1,2,4-triazol-3-one]
[2]; acetonitrile
  Solubility in acetonitrile: slightly soluble
[2]; ethanol
  Solubility in ethanol: sparingly soluble
[2]; isopropyl acetate
  Solubility in isopropyl acetate: sparingly soluble
[2]; water
  Solubility in water: practically insoluble

From patent US20080214535A1, “Amorphous Aprepitant Coprecipitates” (DR. REDDY'S LABORATORIES LTD., priority 2005, published 2008)
